The test concerns the target RIPK1 (recombinant GST-RIPK1 kinase domain, residues 1-327) (Homo sapiens (Human), UniProt Q13546). Briefly: RIPK1-ADP-Glo Enzymatic Assay. Format: biochemical. The settings on record: ADP-Glo; 25 nM GST-RIPK1, 300 μM ATP; assay lower limit ~25 nM; read-out: RIPK1 V0 Ec50. An outline of the steps: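 Enzyme from baculovirus-infected Sf21 cells, 25 nM final, was pre-incubated 30 min at ambient temperature with compound (ten-point, 1:3 dilution from 100000 nM, 1% DMSO), then reacted 150 min with 300 μM ATP and 3 μM dephosphorylated MBP. ADP was read by luminescence; EC50 from four-parameter fit.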
Background: ADP-Glo turns the ADP formed in a reaction into a luminescent signal.

Where only a bound is given, the exact number is not on record here.

RIPK1 (recombinant GST-RIPK1 kinase domain, residues 1-327), sequence (Q13546 1-327): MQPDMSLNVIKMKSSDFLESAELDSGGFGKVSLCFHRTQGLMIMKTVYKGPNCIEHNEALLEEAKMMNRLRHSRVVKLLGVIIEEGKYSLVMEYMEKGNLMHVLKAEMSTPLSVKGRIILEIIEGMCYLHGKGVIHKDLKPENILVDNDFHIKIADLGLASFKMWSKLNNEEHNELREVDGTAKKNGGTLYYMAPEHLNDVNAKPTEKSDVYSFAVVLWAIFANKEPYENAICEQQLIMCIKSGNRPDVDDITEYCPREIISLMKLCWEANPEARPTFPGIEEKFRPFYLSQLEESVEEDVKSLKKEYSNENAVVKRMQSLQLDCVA

As a reminder, the EC50 is the concentration needed to bring the measured effect to its halfway point. In the case of `O=C1N2[C@H](OC13CCN(c1ccnc4ccnn14)CC3)[C@H](O)C[C@H]2c1ccccc1` [Example 4.248, (5′S,7′R,7a′R)-7′-hydroxy-5′-phenyl-1-(pyrazolo[1,5-a]pyrimidin-7-yl)tetrahydro-3′H-spiro[piperidine-4,2′-pyrrolo[2,1-b] [1,3]oxazol]-3′-one], the EC50 was 33.7 nM.
In the case of `CC1CN(C(=O)c2ccccc2)CCC12O[C@@H]1CC[C@@H](c3cc(F)cc(F)c3)N1C2=O` (stereo partly drawn) [Example 6.110, (5′S,7a′R)-1-(benzene-carbonyl)-5′-(3,5-difluorophenyl)-3-methyltetrahydro-3′H-spiro[piperidine-4,2′-pyrrolo[2,1-b][1,3]-oxazol]-3′-one] it was less than 25 nM.
As to `O=C(c1ncccc1F)N1CCC2(CC1)O[C@@H]1CC[C@@H](c3cc(F)cc(F)c3)N1C2=O` [Example 6.54, (5′S,7a'R)-5′-(3,5-difluorophenyl)-1-(3-fluoropyridine-2-carbonyl)tetrahydro-3′H-spiro[piperidine-4,2′-pyrrolo[2,1-b] [1,3]oxazol]-3-one], the half-maximal effective concentration (EC50) was 45.1 nM.
For `COc1cc(N2CCC3(CC2)O[C@@H]2CC[C@@H](c4cc(F)cc(F)c4)N2C3=O)nc(C)c1C#N` [Example 4.69, 6-[(5′S,7a′R)-5′-(3,5-difluorophenyl)-3′-oxotetrahydro-1H,3′H-spiro[piperidine-4,2′-pyrrolo[2,1-b] [1,3]oxazol]-1-yl]-4-methoxy-2-methylpyridine-3-carbonitrile], the EC50 stood at 114 nM.
To `N#Cc1cc(C(=O)N2CCC3(CC2)O[C@@H]2CC[C@@H](c4ccccc4)N2C3=O)ccc1F` [Example 6.138, 2-fluoro-5-[(5′S,7a′R)-3′-oxo-5′-phenyl-tetrahydro-1H,3′H-spiro[piperidine-4,2′-pyrrolo[2,1-b][1,3]-oxazole]-1-carbonyl]-benzonitrile] belongs less than 25 nM.
With `COc1cccc([C@@H]2CC[C@H]3OC4(CCN(c5ccc(C#N)c6ncnn56)CC4)C(=O)N32)c1` [Example 20.2, 5-[(5′S,7a′R)-5′-(3-methoxyphenyl)-3′-oxotetrahydro-1H,3′H-spiro[piperidine-4,2′-pyrrolo[2,1-b][1,3]oxazol]-1-yl][1,2,4]triazolo[1,5-a]pyridine-8-carbonitrile], the EC50 worked out at 25 nM.
On to `N#Cc1cc(N2CC3(C2)O[C@@H]2CC[C@@H](c4cc(F)cc(F)c4)N2C3=O)ncn1` [Example 4.118, 6-((5′S,7a′R)-5′-(3,5-difluorophenyl)-3′-oxotetrahydro-3′H-spiro[azetidine-3,2′-pyrrolo[2,1-b]oxazol]-1-yl)pyrimidine-4-carbonitrile], for which the EC50 was 228 nM.
For `N#Cc1ccc(N2CCC3(CC2)OC2CCC(c4cnccn4)N2C3=O)n2ncnc12` (centres unmarked) [Example 4.141, 5-[3′-oxo-5′-(pyrazin-2-yl)tetrahydro-1H,3′H-spiro[piperidine-4,2′-pyrrolo[2,1-b] [1,3]oxazol]-1-yl][1,2,4]triazolo[1,5-a] pyridine-8-carbonitrile], the EC50 was less than 25 nM.
For the molecule `O=C(c1ccccc1F)N1CCC2(CC1)O[C@@H]1CC[C@@H](c3cccc(F)c3)N1C2=O` [Example 1.7, (5′S,7a′R)-1-(2-fluorobenzene-1-carbonyl)-5′-(3-fluorophenyl)tetrahydro-3′H-spiro[piperidine-4,2′-pyrrolo[2,1-b] [1,3]oxazol]-3′-one], the EC50 was less than 25 nM.
In the case of `N#Cc1ccc(N2CCC3(CC2)O[C@@H]2CC[C@@H](c4cc(F)cc(F)c4)N2C3=O)c(F)c1` [Example 4.24, 4-[(5′S,7a′R)-5′-(3,5-difluorophenyl)-3′-oxotetrahydro-1H,3′H-spiro[piperidine-4,2′-pyrrolo[2,1-b] [1,3]oxazol]-1-yl]-3-fluorobenzonitrile] it was less than 25 nM.
Consider `O=C1N2[C@@H](CC[C@H]2c2ccccc2)OC12CCN(c1cc(-c3ccc(F)cc3)c([N+](=O)[O-])cn1)CC2` [Example 4.208, (5′S,7a′R)-1-[4-(4-fluorophenyl)-5-nitropyridin-2-yl]-5′-phenyltetrahydro-3′H-spiro[piperidine-4,2′-pyrrolo[2,1-b] [1,3]oxazol]-3′-one], for which the EC50 is 56 nM.
On to `Cc1ccccc1[C@@H]1CC[C@H]2OC3(CCN(c4ccnc5c(F)cnn45)CC3)C(=O)N21` [Example 4.255, (5′S,7a′R)-1-(3-fluoropyrazolo[1,5-a]pyrimidin-7-yl)-5′-(2-methylphenyl)tetrahydro-3′H-spiro[piperidine-4,2′-pyrrolo[2,1-b] [1,3]oxazol]-3′-one], for which the EC50 was found to be 40.3 nM.
Turning to `COc1nc(N2CCC3(CC2)O[C@@H]2CC[C@@H](c4ccccc4)N2C3=O)ncc1F` [Example 11.29, (5′S,7a′R)-1-(5-fluoro-4-methoxypyrimidin-2-yl)-5′-phenyltetrahydro-3′H-spiro[piperidine-4,2′-pyrrolo[2,1-b][1,3]oxazol]-3′-one], the EC50 was less than 25 nM.
Consider `O=C(c1nc(N2CCC3(CC2)O[C@@H]2CC[C@@H](c4cc(F)cc(F)c4)N2C3=O)ncc1F)N1CC(F)C1` [Example 7.7, (5′S,7a′R)-5′-(3,5-difluorophenyl)-1-[5-fluoro-4-(3-fluoroazetidine-1-carbonyl)pyrimidin-2-yl]tetrahydro-3′H-spiro[piperidine-4,2′-pyrrolo[2,1-b][1,3]oxazol]-3′-one], for which the EC50 was less than 25 nM.
In the case of `CC1C[C@@]2(CCN1C(=O)c1ccccc1)O[C@@H]1CC[C@@H](c3cccc(F)c3)N1C2=O` (stereo partly drawn) [Example 6.161, (4R,5′S,7a′R)-1-(benzenecarbonyl)-5′-(3-fluorophenyl)-2-methyltetrahydro-3′H-spiro[piperidine-4,2′-pyrrolo[2,1-b][1,3]-oxazol]-3′-one], the EC50 amounted to 275 nM.
As for `O=C(c1nc2ccccc2s1)N1CCC2(CC1)O[C@@H]1CC[C@@H](c3cc(F)cc(F)c3)N1C2=O` [Example 6.28, (5′S,7a′R)-1-(1,3-benzothiazole-2-car-bonyl)-5′-(3,5-difluoro-phenyl)tetrahydro-3′H-spiro[piperidine-4,2′-pyrrolo[2,1-b] [1,3]oxazol]-3′-one], the EC50 amounted to 30.2 nM.
For `COc1nc(N2CCC3(CC2)O[C@@H]2CC[C@@H](c4cc(F)cc(F)c4)N2C3=O)ncc1C#N` [Example 4.38, 2-[(5′S,7a′R)-5′-(3,5-difluorophenyl)-3′-oxotetrahydro-1H,3′H-spiro[piperidine-4,2′-pyrrolo[2,1-b] [1,3]oxazol]-1-yl]-4-methoxypyrimidine-5-carbonitrile], the EC50 came to 12 nM.
As to `O=C(c1cc(F)ccc1F)N1CC2(C1)O[C@@H]1CC[C@@H](c3cc(F)cc(F)c3)N1C2=O` [Example 1.20, (5′S,7a′R)-1-(2,5-difluorobenzoyl)-5′-(3,5-difluorophenyl)tetrahydro-3′H-spiro[azetidine-3,2′-pyrrolo[2,1-b]oxazol]-3′-one], the EC50 is 41.7 nM.
Turning to `O=C(c1cc(F)c(F)cc1F)N1CCC2(CC1)O[C@@H]1CC[C@@H](c3cc(F)cc(F)c3)N1C2=O` [Example 5.4, (5′S,7a′R)-5′-(3,5-difluoro-phenyl)-1-(2,4,5-trifluoro-benzene-1-carbonyl)tetra-hydro-3′H-spiro[piperi-dine-4,2′-pyrrolo[2,1-b] [1,3]oxazol]-3′-one], the EC50 is less than 25 nM.
On to `O=C1N2[C@@H](CC[C@H]2c2ccccc2)OC12CCN(c1cc(C(F)(F)F)ncn1)CC2` [Example 4.33, (5′S,7a′R)-5′-phenyl-1-[6-(trifluoromethyl)pyrimidin-4-yl]tetrahydro-3′H-spiro[piperidine-4,2′-pyrrolo[2,1-b] [1,3]oxazol]-3′-one], for which the EC50 is 50 nM.
Regarding `O=C1N2[C@@H](CC[C@H]2c2ccccc2)OC12CCN(c1ncnc3c1COC3)CC2` [Example 4.222, (5′S,7a′R)-1-(5,7-dihydrofuro[3,4-d]pyrimidin-4-yl)-5′-phenyltetrahydro-3′H-spiro[piperidine-4,2′-pyrrolo[2,1-b] [1,3]oxazol]-3′-one], the EC50 came to 57.3 nM.
Turning to `O=C1N2[C@@H](CC[C@H]2c2ccccc2)OC12CCN(c1ccc(-c3cc(O)no3)cn1)CC2` [Example 4.193, (5′S,7a′R)-1-[5-(3-hydroxy-1,2-oxazol-5-yl)pyridin-2-yl]-5′-phenyltetrahydro-3′H-spiro[piperidine-4,2′-pyrrolo[2,1-b] [1,3]oxazol]-3′-one], the concentration giving a half-maximal response (EC50) was less than 25 nM.
As to `COc1nccc(N2CCC3(CC2)O[C@@H]2CC[C@@H](c4ccccc4)N2C3=O)n1` [Example 4.17, (5′S,7a′R)-1-(2-methoxypyrimidin-4-yl)-5′-phenyltetrahydro-3′H-spiro[piperidine-4,2′-pyrrolo[2,1-b] [1,3]oxazol]-3′-one], the EC50 was less than 25 nM.
`CCn1nccc1C(=O)N1CCC2(CC1)O[C@@H]1CC[C@@H](c3cc(F)cc(F)c3)N1C2=O` [Example 6.37, (5′S,7a′R)-5′-(3,5-difluorophenyl)-1-(1-ethyl-1H-pyrazole-5-carbonyl)tetrahydro-3′H-spiro[piperidine-4,2′-pyrrolo[2,1-b] [1,3]oxazol]-3′-one]: the EC50 was found to be 230 nM.
`Cc1nc(N2CCC3(CC2)C[C@@H]2OC[C@@H](c4ccccc4)N2C3=O)ccc1C#N` [Example 4.78, 2-methyl-6-[(3′R,7a′S)-5′-oxo-3′-phenyltetrahydro-1H,5′H-spiro[piperidine-4,6′-pyrrolo[2,1-b] [1,3]oxazol]-1-yl]pyridine-3-carbonitrile]: the EC50 stood at 58.7 nM.
In the case of `N#Cc1ccc(N2CCC3(CC2)O[C@@H]2CC[C@@H](c4ccccc4)N2C3=O)c(F)c1` [Example 4.73, 3-fluoro-4-[(5′S,7a′R)-3′-oxo-5′-phenyltetrahydro-1H,3′H-spiro[piperidine-4,2′-pyrrolo[2,1-b] [1,3]oxazol]-1-yl]benzonitrile] it was less than 25 nM.

(Values after US12180226B2, “Spirotricycle RIPK1 inhibitors and methods of uses thereof” (Merck Sharp & Dohme LLC, priority 2021, dated 2024).)
